Values after ≈ are worked out from the molar mass of the structure shown. Where two headings read alike, the source gives them in different places.
How the values were obtained:
Format in all cases: cell-based
[1] = tested on: tested bacteria such as Staphylococcus and Escherichia; assay: Stability studies: antimicrobial activity kept on storage; conditions: aqueous solution with an acid; after repeated autoclaving at 125° C. and months of storage
Excerpt: (§1) The objective of the present investigation was to find out whether the antimicrobial activity of fosfomycin with a pH suitable for intravenous administration is maintained in a solvent suitable for intravenous use. For this, fosfomycin disodium (14.5 mmol sodium/g) and succinic acid were used to adjust the pH (0.025 grams of succinic acid per gram of fosfomycin).
(§2) A stock solution of 4 g of fosfomycin disodium and succinic acid (0.025 grams of succinic acid per gram of fosfomycin, corresponding to about 3 g of fosfomycin) in 10 ml distilled water was prepared and divided into 5 cryotubes at 2 ml each, and the solution was exposed at different temperatures as follows:
(§3) Aliquots of 2 ml of the sample were stored at −80° C., at refrigerator temperature (2-8° C.), at room temperature (20-25° C.), and at 45-65° C. until the test end. Another 2 ml of the stock solution were stored at refrigerator temperature (2-8° C.) and autoclaved before the tests at 125° C. for 30 minutes. After that, all samples were tested for their antimicrobioal activity.
To determine the antimicrobial activity of fosfomycin, the minimal inhibitory concentration (MIC) of the 4 mentioned bacteria strains was determined by a tube dilution method in microtiter plates using Mueller-Hinton broth. For the inoculation of the microtiter plates, the inoculum was adjusted to 1.5×104 germs/ml. […]

[2] = tested on: Staphylococcus hominis AG 1115; assay: MIC by tube dilution in microtiter plates, stored fosfomycin solution; conditions: read-out: minimal inhibitory concentration (MIC)
Escherichia coli AG 1215 = assay: as above; conditions: read-out: minimal inhibitory concentration (MIC)
Excerpt: as §1, §2, §3
(§4) To determine the antimicrobial activity of fosfomycin, the minimal inhibitory concentration (MIC) of the 4 mentioned bacteria strains was determined by a tube dilution method in microtiter plates using Mueller-Hinton broth. For the inoculation of the microtiter plates, the inoculum was adjusted to 1.5×104 germs/ml. The evaluation was made after 24 hours of incubation at 37° C.
(§5) Samples were taken, starting with 2,000 μg/ml test substance, diluted by a factor 2. Serial dilutions of 2,000 μg/ml to […] were prepared.

[3] = tested on: Staphylococcus aureus ATTC 49775; assay: as above; conditions: read-out: minimal inhibitory concentration (MIC)
Excerpt: as §1, §2, §3, §4, §5

[4] = tested on: Staphylococcus hominis AG 1115; assay: as above; conditions: AG1115, 125 °C (refrigerator storage, autoclaved 30 minutes before tests), read-out: minimal inhibitory concentration (MIC)
Excerpt: as §1, §2, §3, §4, §5

SMILES: C[C@@H]1O[C@@H]1P(=O)(O)O [Fosfomycin, fosfomycin]
- effectiveness against the tested bacteria after storage [1]: effective
- MIC ([2]; AG1115, 648 h, storage temp. 4-8 °C, storage period 27 days): 15.6 µg/mL (≈ 113 µM)
- MIC ([2]; AG1115, storage temp. 4-8 °C, storage period 64 days): 15.6 µg/mL (≈ 113 µM)
- MIC ([2]; AG1115, storage temp. 4-8 °C, storage period 92 days): 15.6 µg/mL (≈ 113 µM)
- MIC (Escherichia coli AG 1215; AG1215, 0 h, storage temp. 4-8 °C, storage period 0 days): 62.5 µg/mL (≈ 453 µM)
- MIC (Escherichia coli AG 1215; AG1215, 0 h, storage temp. 20-25 °C, storage period 0 days): 250 µg/mL (≈ 1810 µM)
- MIC (Escherichia coli AG 1215; AG1215, 0 h, storage temp. 45-65 °C, storage period 0 days): 62.5 µg/mL (≈ 453 µM)
- MIC (Escherichia coli AG 1215; AG1215, 0 h, storage temp. −80 °C, storage period 0 days): 62.5 µg/mL (≈ 453 µM)
- MIC (Escherichia coli AG 1215; AG1215, 125 °C (refrigerator storage, autoclaved 30 minutes before tests), storage period 0 days): 125 µg/mL (≈ 905 µM)
- MIC (Escherichia coli AG 1215; AG1215, 125 °C (refrigerator storage, autoclaved 30 minutes before tests), storage period 19 days): 125 µg/mL (≈ 905 µM)
- MIC (Escherichia coli AG 1215; AG1215, 125 °C (refrigerator storage, autoclaved 30 minutes before tests), storage period 27 days): 62.5 µg/mL (≈ 453 µM)
- MIC (Escherichia coli AG 1215; AG1215, 125 °C (refrigerator storage, autoclaved 30 minutes before tests), storage period 59 days): 31.2 µg/mL (≈ 226 µM)
- MIC (Escherichia coli AG 1215; AG1215, 125 °C (refrigerator storage, autoclaved 30 minutes before tests), storage period 64 days): 62.5 µg/mL (≈ 453 µM)
- MIC (Escherichia coli AG 1215; AG1215, 125 °C (refrigerator storage, autoclaved 30 minutes before tests), storage period 92 days): 125 µg/mL (≈ 905 µM)
- MIC (Escherichia coli AG 1215; AG1215, 456 h, storage temp. 4-8 °C, storage period 19 days): 62.5 µg/mL (≈ 453 µM)
- MIC (Escherichia coli AG 1215; AG1215, 456 h, storage temp. 20-25 °C, storage period 19 days): 125 µg/mL (≈ 905 µM)
- MIC (Escherichia coli AG 1215; AG1215, 456 h, storage temp. 45-65 °C, storage period 19 days): 250 µg/mL (≈ 1810 µM)
- MIC (Escherichia coli AG 1215; AG1215, 456 h, storage temp. −80 °C, storage period 19 days): 125 µg/mL (≈ 905 µM)
- MIC (Escherichia coli AG 1215; AG1215, 648 h, storage temp. 20-25 °C, storage period 27 days): 31.2 µg/mL (≈ 226 µM)
- MIC (Escherichia coli AG 1215; AG1215, 648 h, storage temp. 45-65 °C, storage period 27 days): 31.2 µg/mL (≈ 226 µM)
- MIC (Escherichia coli AG 1215; AG1215, 648 h, storage temp. −80 °C, storage period 27 days): 62.5 µg/mL (≈ 453 µM)
- MIC (Escherichia coli AG 1215; AG1215, storage temp. 4-8 °C, storage period 92 days): 62.5 µg/mL (≈ 453 µM)
- MIC (Escherichia coli AG 1215; AG1215, storage temp. 20-25 °C, storage period 59 days): 31.2 µg/mL (≈ 226 µM)
- MIC (Escherichia coli AG 1215; AG1215, storage temp. 20-25 °C, storage period 64 days): 31.2 µg/mL (≈ 226 µM)
- MIC (Escherichia coli AG 1215; AG1215, storage temp. 20-25 °C, storage period 92 days): 125 µg/mL (≈ 905 µM)
- MIC (Escherichia coli AG 1215; AG1215, storage temp. 45-65 °C, storage period 59 days): 62.5 µg/mL (≈ 453 µM)
- MIC (Escherichia coli AG 1215; AG1215, storage temp. 45-65 °C, storage period 64 days): 62.5 µg/mL (≈ 453 µM)
- MIC (Escherichia coli AG 1215; AG1215, storage temp. 45-65 °C, storage period 92 days): 125 µg/mL (≈ 905 µM)
- MIC (Escherichia coli AG 1215; AG1215, storage temp. −80 °C, storage period 59 days): 15.6 µg/mL (≈ 113 µM)
- MIC (Escherichia coli AG 1215; AG1215, storage temp. −80 °C, storage period 64 days): 62.5 µg/mL (≈ 453 µM)
- MIC (Escherichia coli AG 1215; AG1215, storage temp. −80 °C, storage period 92 days): 62.5 µg/mL (≈ 453 µM)
- MIC ([3]; ATTC49775, 0 h, storage temp. 20-25 °C, storage period 0 days): 3.9 µg/mL (≈ 28.2 µM)
- MIC ([3]; ATTC49775, 0 h, storage temp. 45-65 °C, storage period 0 days): 7.8 µg/mL (≈ 56.5 µM)
- MIC ([3]; ATTC49775, 0 h, storage temp. −80 °C, storage period 0 days): 7.8 µg/mL (≈ 56.5 µM)
- MIC ([3]; ATTC49775, 125 °C (refrigerator storage, autoclaved 30 minutes before tests), storage period 0 days): 15.6 µg/mL (≈ 113 µM)
- MIC ([3]; ATTC49775, 125 °C (refrigerator storage, autoclaved 30 minutes before tests), storage period 19 days): 7.8 µg/mL (≈ 56.5 µM)
- MIC ([3]; ATTC49775, 125 °C (refrigerator storage, autoclaved 30 minutes before tests), storage period 31 days): 7.8 µg/mL (≈ 56.5 µM)
- MIC ([3]; ATTC49775, 456 h, storage temp. 20-25 °C, storage period 19 days): 15.6 µg/mL (≈ 113 µM)
- MIC ([3]; ATTC49775, 456 h, storage temp. 45-65 °C, storage period 19 days): 7.8 µg/mL (≈ 56.5 µM)
- MIC ([3]; ATTC49775, 456 h, storage temp. −80 °C, storage period 19 days): 3.9 µg/mL (≈ 28.2 µM)
- MIC ([3]; ATTC49775, storage temp. 20-25 °C, storage period 31 days): 15.6 µg/mL (≈ 113 µM)
- MIC ([3]; ATTC49775, storage temp. 45-65 °C, storage period 31 days): 7.8 µg/mL (≈ 56.5 µM)
- MIC ([3]; ATTC49775, storage temp. −80 °C, storage period 31 days): 3.9 µg/mL (≈ 28.2 µM)
- MIC ([4]; storage period 27 days): 15.6 µg/mL (≈ 113 µM)
- MIC ([4]; storage period 31 days): 7.8 µg/mL (≈ 56.5 µM)

Source: patent US10993951B2, “Fosfomycin formulation for parenteral administration” (priority 2016, dated 2021)
